Structures are written as SMILES. Entries after “also recorded” stand apart in the source; their conditions may differ.

Data set [1] concerns MCT-induced pulmonary hypertension. Put plainly: Mean pulmonary arterial pressure in the monocrotaline (MCT) rat pulmonary hypertension model. The data set is classed as in vivo, Sprague-Dawley rats. To be noted: 10 days of therapy starting 38 days after MCT. The protocol:
(§1) Adult male Sprague-Dawley rats (250-350 g) (3 groups; n=5 per group) were treated with a single subcutaneous injection of monocrotaline (MCT; 60 mg/kg), a plant poison that induces a well-characterized experimental model of pulmonary hypertension, or an equivalent volume of saline (2 ml/kg; control). […] At the conclusion of the 10-day dosing period, rats were anesthetized and instrumented, and resting hemodynamic indices were recorded.
Rats were anesthetized with intramuscular ketamine (90 mg/kg) and pentobarbital sodium (15 mg/kg). The trachea was exposed and cannulated with a plastic tube that was connected to a Harvard ventilator. The animals were ventilated with room air at a tidal volume of 1.5 ml at a rate of 100 breaths/minute. A polyethylene catheter (PE-50) was inserted into the right carotid artery to measure the mean systemic arterial pressure (SAP). A polyvinyl (PV-1) catheter was inserted through the right jugular vein via the right atrium and ventricle into the pulmonary artery for measurement of the mean pulmonary arterial pressure (MPAP).

Data set [2] relates to MCT-induced histological alterations in the lung. In words: Lung histology (optical microscopy) in the MCT rat pulmonary hypertension model. The data set is classed as in vivo, Sprague-Dawley rats. Particulars: for Fibrosis score: 10 days starting 38 days after MCT; for Effect on histological lung injury (alveolar damage, inflammatory cell infiltrate, vascular smooth muscle hypertrophy), in words: groups 3 and 4 versus vehicle control (group 2). The protocol:
as §1
The lower lobe of the right lung was fixed with formalin solution. After paraffin embedding, […] sections were stained with haematoxylin and eosin and observed in a Dialux 22 Leitz (Wetziar, Germany) microscope. The score of lung fibrosis was assessed on sections stained with Masson Trichrome staining. For morphometric evaluations, all three lobes of right lung were inspected. […] Results are expressed as the percentage of vessels presenting indices of disease relative to the total number of vessels counted in the sections.

Data set [3] can be described thus: Tolerability during 10-day dosing in MCT rats (body weight, activity level). The data set is classed as in vivo, Sprague-Dawley rats. On the procedure:
as §1

Data set [4] can be described thus: Solubility in solvents and aqueous liquids.
For data set [5], the system named is MCT-induced pulmonary hypertension. To be noted: reported in the literature; cited from earlier work.
[6] abbreviates: listed as 3-nitratomethyl-2,2,5,5-tetramethylpyrrolidinyloxy.
The mark [7] stands for this setting: Group 3: MCT + compound 1a, 1.5 mg/kg/day BID, IP.
Setting [8] is: Group 4: MCT + compound 1a, 2 mg/kg/day BID, PO.

For the compound `CC1(C)CC(CO[N+](=O)[O-])C(C)(C)N1[O]` (centres unmarked) [compound 1a, 3-nitratomethyl-2,2,5,5-tetramethylpyrrolidinyloxy], the “Effect on elevation of pulmonary (arterial) hypertension, in words” value in data set [1] is on record as “highly effective; also recorded: significantly reduced”. Also, the “Effect on elevation of pulmonary (arterial) hypertension, in words” value in data set [1] (setting [6]) is given as “significantly reduced”. The “Protection by chronic oral (enteral) treatment compared with IP treatment” value in data set [2] (2 mg/kg/day PO versus 1.5 mg/kg/day BID IP) was “slightly more protective”. In addition, in data set [2] (setting [7]), the Alveolar damage was found to be 0.50 ± 0.35, the Angioedema score is on record as 10.00 ± 8.86 percentage of vessels, the Muscolaris thickening score was 0.00 ± 0.00 percentage of vessels and the Perivascular infiltrate score is 5.95 ± 5.71 percentage of vessels. Further, in data set [2] (setting [7]), the Fibrosis score stood at 0.80 ± 0.57. In addition, in data set [2] (setting [8]), the Alveolar damage worked out at 0.70 ± 0.45, the Angioedema score is 7.00 ± 2.78 percentage of vessels, the Muscolaris thickening score is listed as 0.00 ± 0.00 percentage of vessels and the Perivascular infiltrate score was 6.06 ± 2.44 percentage of vessels. In addition, the Fibrosis score in data set [2] (setting [8]) stood at 1.00 ± 0.79. For the same compound, in data set [2], the “Effect on histological lung injury (alveolar damage, inflammatory cell infiltrate, vascular smooth muscle hypertrophy), in words” value is “significantly reduced; also recorded: remarkably reduced”. The “Effect on histological lung injury (alveolar damage, inflammatory cell infiltrate, vascular smooth muscle hypertrophy), in words” value in data set [2] (setting [6]) is on record as “significantly reduced”. In data set [3], the “Effect on body weight or activity level” value was “absence of any effect” and the Tolerability entry is “well tolerated”. Moreover, the “Solubility in ethyl acetate and dimethylsulfoxide (DMSO)” value in data set [4] is given as “soluble”. For the same compound, the “Solubility in non-toxic aqueous liquids suitable for human administration” value in data set [4] (water, saline, dextrose solution, polyethylene glycol) is “insoluble”.

As for `COc1ccccc1Oc1c(NS(=O)(=O)c2ccc(C(C)(C)C)cc2)nc(-c2ncccn2)nc1OCCO` [bosentan], the “Effect in the same rodent model with comparably delayed initiation of therapy” value in data set [5] is listed as “no effect”.

(Values after US20130102591A1, “COMPOSITIONS AND METHODS FOR PREVENTION AND TREATMENT OF PULMONARY HYPERTENSION” (priority 2010, published 2013).)
